Laboratory results: US20190375778A1, “ADENOSINE DERIVATIVES FOR USE IN THE TREATMENT OF CANCER” (NuCana plc, priority 2016, published 2019)

Assays:
Jurkat = assay: CellTiterGlo viability assay, Jurkat; assay type: cell-based; details: Homo sapiens, 72 h, read-out: IC50 Jurkat
Description: (§1) In vitro viability assay were performed to assess the effects of compounds on cell viability in selected cell lines over ˜72 hrs using the CellTiterGlo (CTG, Promega-G7573) assay. The tests were performed in duplicates with treatment of compounds at 9 points, 3.16 folds titration in 96 well plates over ˜72 hrs. The compound starting concentrations were 198 μM. Cell viability assay using CellTiterGlo in 96-well plate were performed. Compound treatment 72 hrs, standard growth conditions, duplicates. Compounds were dissolved to 40 mM with thawed […]. Compounds were serially diluted at 3.16 fold in thawed DMSO, and warmed to 37° C. before being dissolved in media (2 μl+200 μl). After compounds were dissolved in media, media containing compounds were warmed to 37° C. in incubator and then compounds in media were added to cell plates (50 μl+50 μl) in duplicates. The compounds' final concentrations were from […] to 19.9 nM. All compound solubilities were checked and recorded again, then the plates were transferred to CO2 tissue culture incubator immediately and incubated for 3 days. DMSO final concentration is 0.5%.

BxPC-3 = assay: CellTiterGlo viability assay, BxPC-3; assay type: cell-based; details: Homo sapiens, BXPC-3, 72 h, read-out: IC50 BxPC-3
Description: as §1

CCRFCEM = assay: CellTiterGlo viability assay, CCRFCEM; assay type: cell-based; details: Homo sapiens, CCRF-CEM, 72 h, read-out: IC50 CCRFCEM
Method in brief: (§2)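 Duplicate 9-point dose series (3.16-fold steps, highest final level 198 μM) were applied to cells kept in standard culture conditions for ~72 hrs. Endpoint: CellTiterGlo luminescence.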

RL = assay: CellTiterGlo viability assay, RL; assay type: cell-based; details: Homo sapiens, RL, 72 h, read-out: IC50 RL
Method in brief: as §2

Z138 = assay: CellTiterGlo viability assay, Z138; assay type: cell-based; details: Homo sapiens, Z-138, 72 h, read-out: IC50 Z138
Description: as §1

HepG2 = assay: CellTiterGlo viability assay, HepG2; assay type: cell-based; details: Homo sapiens, HepG2, 72 h, read-out: IC50 HepG2
Description: as §1

RPMI-8226 = assay: CellTiterGlo viability assay, RPMI-8226; assay type: cell-based, Human; details: Homo sapiens, RPMI-8226, 72 h, read-out: IC50 RPMI-8226
Method in brief: as §2

NCI-H929 = assay: CellTiterGlo viability assay, NCI-H929; assay type: cell-based; details: Homo sapiens, NCI-H929, 72 h, read-out: IC50 NCI-H929
Method in brief: as §2

SW620 = assay: CellTiterGlo viability assay, SW620; assay type: cell-based; details: Homo sapiens, SW-620, 72 h, read-out: IC50 SW620
Description: as §1

HL-60 = assay: CellTiterGlo viability assay, HL-60; assay type: cell-based; details: Homo sapiens, HL-60, 72 h, read-out: IC50 HL-60
Method in brief: as §2

K562 = assay: CellTiterGlo viability assay, K562; assay type: cell-based; details: Homo sapiens, K562, 72 h, read-out: IC50 K562
Method in brief: as §2

THP-1 = assay: CellTiterGlo viability assay, THP-1; assay type: cell-based; details: Homo sapiens, THP-1, 72 h, read-out: IC50 THP-1
Description: as §1

Murine leukemia L1210 = assay: Cell proliferation (Coulter count) assay, L1210; assay type: cell-based; details: Mus musculus, 48 h, read-out: absolute IC50, L1210
Method in brief: (§3)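 Cells grown in DMEM with 10% FBS. HeLa seeded at 10 000 cells/well, compound added after 24 h, counted day 5; L1210 and CEM seeded at 60 000 cells/well with compound, counted after 48 h and 72 h respectively. IC50 is concentration halving proliferation by Coulter count.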

MCF7 = assay: CellTiterGlo viability assay, MCF7; assay type: cell-based; details: Homo sapiens, MCF7, 72 h, read-out: IC50 MCF7
Description: as §1

HT29 = assay: CellTiterGlo viability assay, HT29; assay type: cell-based; details: Homo sapiens, HT-29, 72 h, read-out: IC50 HT29
Description: as §1

MV4-11 = assay: CellTiterGlo viability assay, MV4-11; assay type: cell-based; details: Homo sapiens, MV4-11, 72 h, read-out: IC50 MV4-11
Method in brief: as §2

human T-lymphocyte CEM = assay: Cell proliferation (Coulter count) assay, CEM; assay type: cell-based; details: 72 h, read-out: absolute IC50, CEM
Method in brief: as §3

MiaPaCa-2 = assay: CellTiterGlo viability assay, MiaPaCa-2; assay type: cell-based; details: Homo sapiens, MIA PaCa-2, 72 h, read-out: IC50 MiaPaCa-2
Description: as §1

MOLT-4 = assay: CellTiterGlo viability assay, MOLT-4; assay type: cell-based; details: Homo sapiens, MOLT-4, 72 h, read-out: IC50 MOLT-4
Description: as §1

HEL92.1.7 = assay: CellTiterGlo viability assay, HEL92.1.7; assay type: cell-based; details: Homo sapiens, HEL 92.1.7, 72 h, read-out: IC50 HEL92.1.7
Method in brief: as §2

KG-1 = assay: CellTiterGlo viability assay, KG-1; assay type: cell-based; details: Homo sapiens, KG-1, 72 h, read-out: IC50 KG-1
Method in brief: as §2

HS445 = assay: CellTiterGlo viability assay, HS445; assay type: cell-based; details: Hs 445, 72 h, read-out: IC50 HS445
Description: as §1

Row | Compound | IC50 (Jurkat) [µM] | IC50 (BxPC-3) [µM] | IC50 (CCRFCEM) [µM] | IC50 (RL) [µM] | IC50 (Z138) [µM] | IC50 (HepG2) [µM] | IC50 (RPMI-8226) [µM] | IC50 (NCI-H929) [µM] | IC50 (SW620) [µM] | IC50 (HL-60) [µM] | IC50 (K562) [µM] | IC50 (THP-1) [µM] | IC50 (Murine leukemia L1210) [µM] | IC50 (MCF7) [µM] | IC50 (HT29) [µM] | IC50 (MV4-11) [µM] | IC50 (human T-lymphocyte CEM) [µM] | IC50 (MiaPaCa-2) [µM] | IC50 (MOLT-4) [µM] | IC50 (HEL92.1.7) [µM] | further results
1 | Nc1ncnc2c1nc(Cl)n2[C@@H]1O[C@H](COP(=O)(NCC(=O)OCc2ccccc2)Oc2ccccc2)[C@@H](O)[C@H]1O (mixture of isomers) [Compound B, Benzyl 2-(((((2R,3S,4R,5R)-5-(6-amino-8-chloro-9H-purin-9-yl)-3,4-dihydroxytetra-hydrofuran-2-yl)methoxy)(phenoxy)phosphoryl)amino)acetate] | 0.1 to 5 | 5 to 15 | 0.1 to 5 | 5 to 15 | 0.1 to 5 | 0.1 to 5 | 0.1 to 5 | 5 to 15 | 0.1 to 5 | 0.1 to 5 | 0.1 to 5 | 0.1 to 5 | 5 to 15 | 0.1 to 5 | 0.1 to 5 | 0.1 to 5 | 5 to 15 | 0.1 to 5 | 0.1 to 5 | 0.1 to 5 | IC50 (KG-1): 0.1 to 5 µM; IC50 (HS445): 5 to 15 µM
2 | C[C@H](NP(=O)(OC[C@H]1O[C@@H](n2c(Cl)nc3c(N)ncnc32)C(O)C1O)Oc1cccc2ccccc12)C(=O)OCc1ccccc1 (stereo partly drawn) [Compound D, (2S)-Benzyl 2-(((((2R,3S,4R,5R)-5-(6-amino-8-chloro-9H-purin-9-yl)-3,4-dihydroxy-tetrahydrofuran-2-yl)methoxynaphthalene-1-yloxy)phosphoryl)amino)propanoate] | 0.1 to 5 | 5 to 15 | 0.1 to 5 | 5 to 15 | 0.1 to 5 | 0.1 to 5 | 0.1 to 5 | 0.1 to 5 | 0.1 to 5 | 5 to 15 | 0.1 to 5 | 0.1 to 5 | 5 to 15 | 0.1 to 5 | 0.1 to 5 | 0.1 to 5 | 0.1 to 5 | 0.1 to 5 | 0.1 to 5 | 0.1 to 5 | IC50 (KG-1): 5 to 15 µM; IC50 (HS445): 5 to 15 µM
